Test results as given in patent US20240025906A1 (NEURON23, INC., priority 2022, published 2024).

Columns and labels:
TYK2 JH2 = target: T1, TYK2 JH2 (Homo sapiens, UniProt P29597); assay: TYK2 JH2 binding assay (KINOMEscan KdELECT competitive binding); settings: TYK2 JH2 domain, DiscoverX KINOMEscan KdELECT (Assay A); read-out: Biochemical TYK2_DiscoverX_JH2_BND_Kd
T1 construct: purchased DiscoverX (KINOMEscan KdELECT service); host or cells: E. coli BL21-derived (T7 phage display) or HEK-293
Method in brief: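 JH2-domain fragment, expressed as T7 phage tag in BL21-derived E. coli or DNA-tagged from HEK-293, competed with test compound against bead-immobilized biotinylated ligand in binding buffer (0.9% DMSO). 1 h shaking at room temperature; bound kinase eluted with 0.5 μM free ligand and quantified by qPCR. Kd from 11-point 3-fold dilutions.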

[1] = tested on: JAK1/TYK2 pSTAT5 (Tyr694/699) in THP-1 cell line; assay: IFNa-stimulated JAK1/TYK2 pSTAT5 (Tyr694/699) inhibition cellular assay, AlphaLISA; type: cell-based; settings: Homo sapiens; THP-1 cells, IFNa-stimulated, AlphaLISA (Assay B); read-out: Cellular_THP1_IFNa-pSTATS_TYK2
Method in brief: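 THP-1 cells (2e4/well in HBSS) were preincubated with compound (8 points, 6-fold steps from 10000 nM final) for 1 h at 37 °C, then stimulated with IFNa (added at 100 ng/mL) for 30 min. Lysate pSTAT5 was read by AlphaLISA at 615 nm. IC50 came from a 4-parameter fit with bottom 0 and Hill −1.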

T1 sequence (P29597 589-875 limits assumed): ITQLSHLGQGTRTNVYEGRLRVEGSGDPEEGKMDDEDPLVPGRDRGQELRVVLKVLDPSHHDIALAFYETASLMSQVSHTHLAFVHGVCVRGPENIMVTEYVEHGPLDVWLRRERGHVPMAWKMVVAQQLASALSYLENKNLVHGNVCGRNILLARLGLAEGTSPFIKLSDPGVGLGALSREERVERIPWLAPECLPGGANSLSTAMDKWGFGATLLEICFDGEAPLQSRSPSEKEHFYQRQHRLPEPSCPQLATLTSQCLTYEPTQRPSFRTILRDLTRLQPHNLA

Kd (TYK2 JH2)	IC50 [1]	Structure (SMILES)
≤ 100 nM	≤ 500 nM	CNc1ncc(-c2nc3ccccc3o2)c2cc(Nc3ccccn3)ncc12 [Example 427, 4-(benzo[d]oxazol-2-yl)-N^1-methyl-N^6-(pyridin-2-yl)-2,7-naphthyridine-1,6-diamine]
≤ 100 nM	≤ 500 nM	CCC(=O)Nc1cc2c(-c3nc4ccccc4o3)cnc(NC)c2cn1 [Example 428, N-(5-(benzo[d]oxazol-2-yl)-8-(methylamino)-2,7-naphthyridin-3-yl)propionamide]
≤ 100 nM	> 500 nM	CNc1ncc(-c2nc3ccccc3o2)c2cc(NC(=O)C(C)C)ncc12 [Example 429, N-(5-(benzo[d]oxazol-2-yl)-8-(methylamino)-2,7-naphthyridin-3-yl)isobutyramide]
≤ 100 nM	≤ 500 nM	[2H]C([2H])([2H])Nc1ncc(-c2nc3ccccc3o2)c2cc(NC(C)=O)ncc12 [Example 431, N-(5-(benzo[d]oxazol-2-yl)-8-((methyl-d3)amino)-2,7-naphthyridin-3-yl)acetamide]
≤ 100 nM	≤ 500 nM	[2H]C([2H])([2H])Nc1ncc(-c2nc3ccccc3o2)c2cc(NC(=O)C([2H])([2H])[2H])ncc12 [Example 432, N-(5-(benzo[d]oxazol-2-yl)-8-((methyl-d3)amino)-2,7-naphthyridin-3-yl)acetamide-2,2,2-d3]
≤ 100 nM	≤ 500 nM	[2H]C([2H])([2H])Nc1ncc(-c2nc3cc(OC)ccc3o2)c2cc(NC(=O)[C@@H]3C[C@@H]3F)ncc12 [Example 435, (1S,2S)-2-fluoro-N-(5-(5-methoxybenzo[d]oxazol-2-yl)-8-((methyl-d3)amino)-2,7-naphthyridin-3-yl)cyclopropane-1-carboxamide]
≤ 100 nM	≤ 500 nM	[2H]C([2H])([2H])Nc1ncc(-c2nc3cc(OC([2H])([2H])[2H])ccc3o2)c2cc(NC(=O)[C@H]3C[C@H]3C)ncc12 [Example 439, (1S,2R)—N-(5-(5-(methoxy-d3)benzo[d]oxazol-2-yl)-8-((methyl-d3)amino)-2,7-naphthyridin-3-yl)-2-methylcyclopropane-1-carboxamide]
≤ 100 nM	≤ 500 nM	[2H]C([2H])([2H])Nc1ncc(-c2nc3cc(N4CCOCC4)ccc3o2)c2cc(NC(=O)C3(F)CC3)ncc12 [Example 442, 1-fluoro-N-(8-((methyl-d3)amino)-5-(5-morpholinobenzo[d]oxazol-2-yl)-2,7-naphthyridin-3-yl)cyclopropane-1-carboxamide]
≤ 100 nM	≤ 500 nM	[2H]C([2H])([2H])Nc1ncc(-c2nc3cc(N4CCOCC4)ccc3o2)c2cc(NC(=O)[C@H]3C[C@H]3C)ncc12 [Example 443, (1S,2R)-2-methyl-N-(8-((methyl-d3)amino)-5-(5-morpholinobenzo[d]oxazol-2-yl)-2,7-naphthyridin-3-yl)cyclopropane-1-carboxamide]

Further lines, the compound ahead of its results:

Structure (SMILES)	Kd (TYK2 JH2)	IC50 [1]
CNc1ncc(-c2nc3cc(N4CCO[C@@H](C)C4)ccc3o2)c2cc(NC(=O)C3(C)CC3)ncc12 [Example 409, (S)-1-methyl-N-(8-(methylamino)-5-(5-(2-methylmorpholino)benzo[d]oxazol-2-yl)-2,7-naphthyridin-3-yl)cyclopropane-4-carboxamide]	≤ 100 nM	≤ 500 nM
CNc1ncc(-c2nc3cc(N4CCO[C@@H](C)C4)ccc3o2)c2cc(Nc3ccn(C)n3)ncc12 [Example 417, (S)—N^1-methyl-N^6-(1-methyl-1H-pyrazol-3-yl)-4-(5-(2-methylmorpholino)benzo[d]oxazol-2-yl)-2,7-naphthyridine-1,6-diamine]	≤ 100 nM	≤ 500 nM
CNc1ncc(-c2nc3cc(N4CCO[C@H](C)C4)ccc3o2)c2cc(NC(=O)[C@@H]3C[C@@H]3F)ncc12 [Example 418, (1S,2S)-2-fluoro-N-(8-(methylamino)-5-(5-((R)-2-methylmorpholino)benzo[d]oxazol-2-yl)-2,7-naphthyridin-3-yl)cyclopropane-1-carboxamide]	≤ 100 nM	≤ 500 nM
CNc1ncc(-c2nc3cc(N4CCO[C@H](C)C4)ccc3o2)c2cc(NC(=O)[C@H]3C[C@H]3C)ncc12 [Example 419, (1S,2R)-2-methyl-N-(8-(methylamino)-5-(5-((R)-2-methylmorpholino)benzo[d]oxazol-2-yl)-2,7-naphthyridin-3-yl)cyclopropane-1-carboxamide]	≤ 100 nM	≤ 500 nM
CNc1ncc(-c2nc3cc(N4CCO[C@H](C)C4)ccc3o2)c2cc(Nc3ccccn3)ncc12 [Example 420, (R)—N^1-methyl-4-(5-(2-methylmorpholino)benzo[d]oxazol-2-yl)-N^6-(pyridin-2-yl)-2,7-naphthyridine-1,6-diamine]	≤ 100 nM	≤ 500 nM
CNc1ncc(-c2nc3cc(N4CCOCC4)ccc3o2)c2cc(NC(=O)[C@@H]3CC3(F)F)ncc12 [Example 421, (S)-2,2-difluoro-N-(8-(methylamino)-5-(5-morpholinobenzo[d]oxazol-2-yl)-2,7-naphthyridin-3-yl)cyclopropane-1-carboxamide]	≤ 100 nM	≤ 500 nM
CNc1ncc(-c2nc3cc(N4CCOCC4)ccc3o2)c2cc(NC(=O)[C@H]3CC3(F)F)ncc12 [Example 422, (R)-2,2-difluoro-N-(8-(methylamino)-5-(5-morpholinobenzo[d]oxazol-2-y1)-2,7-naphthyridin-3-yl)cyclopropane-1-carboxamide]	≤ 100 nM	≤ 500 nM
CNc1ncc(-c2nc3cc(N4CCOCC4)ccc3o2)c2cc(NC(=O)[C@H]3C[C@H]3C)ncc12 [Example 423, (1S,2R)-2-methyl-N-(8-(methylamino)-5-(5-morpholinobenzo[d]oxazol-2-yl)-2,7-naphthyridin-3-yl)cyclopropane-1-carboxamide]	≤ 100 nM	≤ 500 nM
CNc1ncc(-c2nc3cc(N4CCOCC4)ccc3o2)c2cc(NC(=O)[C@@H]3C[C@@H]3F)ncc12 [Example 424, (1S,2S)-2-fluoro-N-(8-(methylamino)-5-(5-morpholinobenzo[d]oxazol-2-yl)-2,7-naphthyridin-3-yl)cyclopropane-1-carboxamide]	≤ 100 nM	≤ 500 nM
CNc1ncc(-c2nc3cc(N4CCOCC4)ccc3o2)c2cc(NC(=O)C3(F)CC3)ncc12 [Example 425, 1-fluoro-N-(8-(methylamino)-5-(5-morpholinobenzo[d]oxazol-2-yl)-2,7-naphthyridin-3-yl)cyclopropane-1-carboxamide]	≤ 100 nM	≤ 500 nM
CNc1ncc(-c2nc3cc(N4CCOCC4)ccc3o2)c2cc(Nc3cc(C)n(C)n3)ncc12 [Example 426, N6-(1,5-dimethyl-1H-pyrazol-3-yl)-N^1-methyl-4-(5-morpholinobenzo[d]oxazol-2-yl)-2,7-naphthyridine-1,6-diamine]	≤ 100 nM	≤ 500 nM
[2H]C([2H])([2H])Nc1ncc(-c2nc3cc(N4CCO[C@@H](C)C4)ccc3o2)c2cc(NC(=O)[C@H]3C[C@H]3C)ncc12 [Example 440, (1S,2R)-2-methyl-N-(8-((methyl-d3)amino)-5-(5-((S)-2-methylmorpholino)benzo[d]oxazol-2-yl)-2,7-naphthyridin-3-yl)cyclopropane-1-carboxamide]	≤ 100 nM	≤ 500 nM
[2H]C([2H])([2H])Nc1ncc(-c2nc3cc(N4CCO[C@H](C)C4)ccc3o2)c2cc(NC(=O)[C@H]3C[C@H]3C)ncc12 [Example 441, (1S,2R)-2-methyl-N-(8-((methyl-d3)amino)-5-(5-((R)-2-methylmorpholino)benzo[d]oxazol-2-yl)-2,7-naphthyridin-3-yl)cyclopropane-1-carboxamide]	≤ 100 nM	≤ 500 nM
CNc1ncc(-c2nc3c(NC(C)=O)cccc3o2)c2cc(NC(=O)C3CC3)ncc12 [Example 444, N-(5-(4-acetamidobenzo[d]oxazol-2-yl)-8-(methylamino)-2,7-naphthyridin-3-yl)cyclopropanecarboxamide]	≤ 100 nM	≤ 500 nM
CNc1ncc(-c2nc3cc(-c4nc[nH]n4)ccc3o2)c2cc(NC(=O)C3CC3)ncc12 [Example 445, N-(5-(5-(1H-1,2,4-triazol-3-yl)benzo[d]oxazol-2-yl)-8-(methylamino)-2,7-naphthyridin-3-yl)cyclopropanecarboxamide]	≤ 100 nM	≤ 500 nM
CNc1ncc(-c2nc3cc(-n4c(=O)ccn4C)ccc3o2)c2cc(NC(=O)C3CC3)ncc12 [Example 446, N-(5-(5-(2-methyl-5-oxo-2,5-dihydro-1H-pyrazol-1-yl)benzo[d]oxazol-2-yl)-8-(methylamino)-2,7-naphthyridin-3-yl)cyclopropanecarboxamide]	≤ 100 nM	> 500 nM
CNc1ncc(-c2nc3cc(N4CC5COCC(C4)N5C)ccc3o2)c2cc(NC(=O)C3CC3)ncc12 [Example 447, N-(5-(5-(9-methyl-3-oxa-7,9-diazabicyclo[3.3.1]nonan-7-yl)benzo[d]oxazol-2-yl)-8-(methylamino)-2,7-naphthyridin-3-yl)cyclopropanecarboxamide]	≤ 100 nM	≤ 500 nM
CNc1ncc(-c2nc3cc(C4CCOCC4)ccc3o2)c2cc(NC(=O)C3CC3)ncc12 [Example 448, N-(8-(methylamino)-5-(5-(tetrahydro-2H-pyran-4-yl)benzo[d]oxazol-2-yl)-2,7-naphthyridin-3-yl)cyclopropanecarboxamide]	≤ 100 nM	≤ 500 nM
